Patent publication US4103019A, “Triterpene derivatives” (Laboratorios Landerlan, S. A., priority 1975, dated 1978)

Assays:
[1] = test system: different artificially invoked conditions; assay: Neurotropic, musculotropic, antihistaminic, anti-ulcer and healing activity in different artificially invoked conditions; assay type: in vivo; conditions: different artificially invoked conditions in mice, rats, Guinea pigs, rabbits and dogs
[2] = test system: ulcers (Pyloric Ligature, M. Shay); assay: Anti-ulcer action, pyloric ligature ulcers (M. Shay); assay type: in vivo, rats
[3] = test system: ulcers (reserpine); assay: Anti-ulcer action, reserpine-induced ulcers; assay type: in vivo, rats; conditions: intra-peritoneal
Excerpt: Dose mg./Kg. Inhibition %
Reserpine 5 Intra-peritoneal

[4] = test system: ulcers (Psychosomatic Frustration, M. Bonfils); assay: Anti-ulcer action, psychosomatic frustration ulcers (M. Bonfils); assay type: in vivo, rats; conditions: oral
[5] = test system: ulcers (phenylbutazone); assay: Anti-ulcer action, phenylbutazone-induced ulcers; assay type: in vivo, rats; conditions: oral

| SMILES | activity as neurotropic, musculotropic antihistaminic, anti-ulcer and healing agents [1] | Inhibition % ([2]; 2.5 mg./Kg., intra-peritoneal) | Inhibition % ([2]; 5 mg./Kg., intra-dermal) | Inhibition % ([2]; 10 mg./Kg., intra-peritoneal) | Inhibition % ([2]; 15 mg./Kg., intra-peritoneal) | Inhibition % ([2]; 25 mg./Kg., intra-peritoneal) | Inhibition % ([3]; 5 mg./Kg.) | Inhibition % ([3]; 10 mg./Kg.) | Inhibition % ([3]; 25 mg./Kg.) | Inhibition % ([4]; 5 mg./Kg.) | Inhibition % ([4]; 10 mg./Kg.) | Inhibition % ([4]; 20 mg./Kg.) | Inhibition % ([2]; 2.5 mg./Kg., intra-dermal) | Inhibition % ([2]; 5 mg./Kg., intra-peritoneal) | Inhibition % ([2]; 10 mg./Kg., intra-dermal) | Inhibition % ([5]; 5 mg./Kg.) | Inhibition % ([5]; 10 mg./Kg.) | Inhibition % ([4]; 50 mg./Kg.) |
| --- | --- | --- | --- | --- | --- | --- | --- | --- | --- | --- | --- | --- | --- | --- | --- | --- | --- | --- |
| CC1(C(=O)OCC2CCC[N+]2(C)C)CCC2(C)CCC3(C)C(=CC(=O)C4C5(C)CCC(O)C(C)(C)C5CCC43C)C2C1 (centres unmarked) [Example 3, 2-(glycyrrhetinoylmethyl) N-methyl pyrrolidine methylsulfate] | outstanding activity | 52% | 36% | 69% | 48% | 69% | 42% | 25% | 25% | 42% | 33% | 18% | – | – | – | – | – | – |
| CC1(C(=O)OCC2CCC[N+]2(C)C)CCC2(C)CCC3(C)C(=CC(=O)C4C5(C)CCC(O)C(C)(C)C5CCC43C)C2C1 (centres unmarked) [Example 4, 2(glycyrrhetinoyl methyl) N-methylpyrrolidine methylbromide] | outstanding activity | – | 29% | 55% | – | – | 8% | 47% | 13% | 52% | 43% | – | 27% | 65% | 24% | 22% | 23% | 25% |
